Results reported in PubChem BioAssay AID330 (DTP/NCI, 2004).
Values joined by “and” are separate entries in the source; they are usually repeats but may differ in a detail not shown here. Equal values may be shown once. Inconclusive results and toxic doses are left out.

System: P388 leukemia ip, CD2F1 mice, survival T/C
Assay: NCI In Vivo Anticancer Drug Screen. Data for tumor model P388 Leukemia (intraperitoneal) in CD2F1 (CDF1) mice
Details: endpoint: median survival time, higher = longer survival
Method in brief: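 Mice carrying the transplanted tumor received test compound or vehicle. Survival was recorded in each group, and the value is the treated-group measurement divided by that of the vehicle-treated control group.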

[1] = dose: 60.0 mg/kg/injection, schedule: Q01DX005 (ip), vehicle: saline with Tween-80
[2] = dose: 120.0 mg/kg/injection, schedule: Q01DX005 (ip), vehicle: saline with Tween-80
[3] = dose: 240.0 mg/kg/injection, schedule: Q01DX005 (ip), vehicle: saline with Tween-80
[4] = dose: 50.0 mg/kg/injection, schedule: Q01DX009 (ip), vehicle: saline
[5] = dose: 100.0 mg/kg/injection, schedule: Q01DX009 (ip), vehicle: saline
[6] = dose: 60.0 mg/kg/injection, schedule: Q01DX005 (ip), vehicle: Klucel (hydroxypropylcellulose) (HPC)
[7] = dose: 25.0 mg/kg/injection, schedule: Q01DX005 (ip), vehicle: saline with Tween-80
[8] = dose: 50.0 mg/kg/injection, schedule: Q01DX005 (ip), vehicle: saline with Tween-80
[9] = dose: 100.0 mg/kg/injection, schedule: Q01DX005 (ip), vehicle: saline with Tween-80
[10] = dose: 200.0 mg/kg/injection, schedule: Q01DX005 (ip), vehicle: saline with Tween-80
[11] = dose: 25.0 mg/kg/injection, schedule: Q01DX009 (ip), vehicle: saline with Tween-80
[12] = dose: 50.0 mg/kg/injection, schedule: Q01DX009 (ip), vehicle: saline with Tween-80
[13] = dose: 100.0 mg/kg/injection, schedule: Q01DX009 (ip), vehicle: saline with Tween-80
[14] = dose: 200.0 mg/kg/injection, schedule: Q01DX009 (ip), vehicle: saline with Tween-80

Q: For `CN1NC(c2ccccc2)=C(C#N)C(=O)CC1c1cccs1` (stereo unspecified), which T/C [1] is on record?
A: 95 % of control

Q: What about the T/C [2] of the same compound?
A: 88 % of control

Q: What about the T/C [3] of the same compound?
A: 96 % of control

Q: `Cc1ccc2c(c1)SP1(c3ccccc3)(Oc3c(c4ccccc4c4ccccc34)O1)S2` was tested. Which T/C [1] did it give?
A: 118 % of control

Q: And the T/C [2]?
A: 110 % of control

Q: And the T/C [3]?
A: 114 % of control

Q: With `OCC[N-]CC[N-]CCO.[Cl][Co][Cl]` as the compound, how does the T/C (dose: 6.25 mg/kg/injection, schedule: Q01DX009 (ip), vehicle: saline) read?
A: 103 % of control

Q: What about the T/C (dose: 12.5 mg/kg/injection, schedule: Q01DX009 (ip), vehicle: saline) of the same compound?
A: 120 % of control

Q: What about the T/C (dose: 25.0 mg/kg/injection, schedule: Q01DX009 (ip), vehicle: saline) of the same compound?
A: 120 % of control

Q: And the T/C [4]?
A: 122 % of control

Q: And the T/C [5]?
A: 92 % of control

Q: Which T/C (dose: 15.0 mg/kg/injection, schedule: Q01DX005 (ip), vehicle: saline with Tween-80) does the source give for `CN(C)C1=CC(=Nc2ccccc2)SC(C)(C)C1` here?
A: 100 % of control

Q: What about the T/C (dose: 30.0 mg/kg/injection, schedule: Q01DX005 (ip), vehicle: saline with Tween-80) of the same compound?
A: 100 % of control

Q: And the T/C [6]?
A: 100 % of control

Q: And the T/C [1]?
A: 99 % of control

Q: With `CC(C)(C)SSC(=S)C1CCCCC1` as the compound, how does the T/C [7] read?
A: 108 % of control

Q: What about the T/C [8] of the same compound?
A: 106 % of control and 116 % of control

Q: And the T/C [9]?
A: 108 % of control and 118 % of control

Q: And the T/C [10]?
A: 117 % of control

Q: Which results are given for `CC(=O)Nc1cccc2c1CCCC2`?
A: T/C [8]: 100 % of control; T/C [9]: 102 % of control; T/C [10]: 102 % of control

Q: `COc1ccc(OC)c(CC(CC(=O)O)C(C)=O)c1` (stereo unspecified) was tested. Which T/C (dose: 25.0 mg/kg/injection, schedule: Q01DX009 (ip), vehicle: other) did it give?
A: 97 % of control

Q: What about the T/C (dose: 50.0 mg/kg/injection, schedule: Q01DX009 (ip), vehicle: other) of the same compound?
A: 100 % of control

Q: And the T/C (dose: 100.0 mg/kg/injection, schedule: Q01DX009 (ip), vehicle: other)?
A: 100 % of control

Q: And the T/C (dose: 200.0 mg/kg/injection, schedule: Q01DX009 (ip), vehicle: other)?
A: 101 % of control

Q: And the T/C (dose: 400.0 mg/kg/injection, schedule: Q01DX009 (ip), vehicle: other)?
A: 108 % of control

Q: `CN(C)C(=O)c1ccc([N+](=O)[O-])cc1` was tested. Which T/C [11] did it give?
A: 119 % of control

Q: And the T/C [12]?
A: 98 % of control

Q: And the T/C [13]?
A: 96 % of control

Q: And the T/C [14]?
A: 104 % of control

Q: Which T/C [8] does the source give for `CCCCCCCN(CCCCCCC)CC(O)c1ccc2ccc3ccc(Cl)cc3c2c1` (stereo unspecified) here?
A: 96 % of control

Q: And the T/C [9]?
A: 96 % of control

Q: And the T/C [10]?
A: 104 % of control

Q: With `COc1cc(CC(NC(C)=O)C(=O)O)cc(OC)c1OC` (stereo unspecified) as the compound, how does the T/C (dose: 100.0 mg/kg/injection, schedule: Q01DX001 (ip), vehicle: saline) read?
A: 105 % of control

Q: And the T/C (dose: 200.0 mg/kg/injection, schedule: Q01DX001 (ip), vehicle: saline)?
A: 99 % of control

Q: What about the T/C (dose: 400.0 mg/kg/injection, schedule: Q01DX001 (ip), vehicle: saline) of the same compound?
A: 100 % of control

Q: `NC1CNC(=O)NC1=O` (stereo unspecified) was tested. Which T/C (dose: 50.0 mg/kg/injection, schedule: Q01DX005 (ip), vehicle: saline) did it give?
A: 101 % of control

Q: What about the T/C (dose: 100.0 mg/kg/injection, schedule: Q01DX005 (ip), vehicle: saline) of the same compound?
A: 100 % of control

Q: And the T/C (dose: 200.0 mg/kg/injection, schedule: Q01DX005 (ip), vehicle: saline)?
A: 101 % of control

Q: What does the source list for `Cc1[nH]ccc2c(C)c3nc4ccccc4c3cc12`?
A: T/C (dose: 6.25 mg/kg/injection, schedule: Q04DX002 (ip), vehicle: water): 108 % of control; T/C (dose: 12.5 mg/kg/injection, schedule: Q04DX002 (ip), vehicle: water): 121 % of control; T/C [11]: 163 % of control; T/C (dose: 25.0 mg/kg/injection, schedule: Q04DX002 (ip), vehicle: water): 123 % of control; T/C [12]: 113 % of control; T/C (dose: 100.0 mg/kg/injection, schedule: Q04DX002 (ip), vehicle: water): 153 % of control; T/C (dose: 160.0 mg/kg/injection, schedule: Q04DX002 (ip), vehicle: distilled water + Tween-80): 157 % of control; T/C (dose: 200.0 mg/kg/injection, schedule: Q04DX002 (ip), vehicle: water): 166 % of control; T/C (dose: 320.0 mg/kg/injection, schedule: Q04DX002 (ip), vehicle: distilled water + Tween-80): 188 % of control

Q: How did the T/C (dose: 6.25 mg/kg/injection, schedule: Q01DX005 (ip), vehicle: saline with Tween-80) turn out when `N#CC1SC(C#N)C(c2ccc(Cl)cc2)OC1c1ccc(Cl)cc1` (stereo unspecified) was run?
A: 93 % of control

Q: What about the T/C (dose: 12.5 mg/kg/injection, schedule: Q01DX005 (ip), vehicle: saline with Tween-80) of the same compound?
A: 91 % of control

Q: And the T/C [7]?
A: 90 % of control

Q: What about the T/C [9] of the same compound?
A: 91 % of control

Q: And the T/C [10]?
A: 104 % of control

Q: How did the T/C [4] turn out when `COc1ccc(OC)c(N=Cc2ccc(C=Nc3cc(OC)ccc3OC)cc2)c1` was run?
A: 101 % of control

Q: And the T/C [5]?
A: 101 % of control

Q: With `CC1=CC(=O)C(O)C2(C)C1CC1OC(=O)C(OC(=O)CC(C)(C)O)C3C(C)C(O)C4(O)OCC13C42` (stereo unspecified) as the compound, how does the T/C (dose: 0.5 mg/kg/injection, schedule: Q01DX009 (ip), vehicle: saline + alcohol) read?
A: 115 % of control

Q: And the T/C (dose: 1.0 mg/kg/injection, schedule: Q01DX009 (ip), vehicle: saline + alcohol)?
A: 118 % of control

Q: What about the T/C (dose: 2.0 mg/kg/injection, schedule: Q01DX009 (ip), vehicle: saline + alcohol) of the same compound?
A: 119 % of control

Q: What about the T/C (dose: 8.0 mg/kg/injection, schedule: Q01DX009 (ip), vehicle: saline + alcohol) of the same compound?
A: 118 % of control

Q: How did the T/C (dose: 6.25 mg/kg/injection, schedule: Q01DX009 (ip), vehicle: suspension in saline) turn out when `CCCCC(CC)(CCC)CCN` (stereo unspecified) was run?
A: 104 % of control

Q: What about the T/C (dose: 12.5 mg/kg/injection, schedule: Q01DX009 (ip), vehicle: suspension in saline) of the same compound?
A: 107 % of control

Q: What about the T/C (dose: 25.0 mg/kg/injection, schedule: Q01DX009 (ip), vehicle: suspension in saline) of the same compound?
A: 102 % of control

Q: Which results are given for `Cc1cccc(C)c1NC=O`?
A: T/C (dose: 50.0 mg/kg/injection, schedule: Q04DX003 (ip), vehicle: saline): 112 % of control; T/C (dose: 100.0 mg/kg/injection, schedule: Q04DX003 (ip), vehicle: saline): 105 % of control; T/C (dose: 200.0 mg/kg/injection, schedule: Q04DX003 (ip), vehicle: saline): 106 % of control; T/C (dose: 400.0 mg/kg/injection, schedule: Q04DX003 (ip), vehicle: saline): 106 % of control

Q: Which results are given for `O=C1NC(=O)C2C3C=CC(C12)C1C2C(=O)NC(=O)C2C31` (stereo unspecified)?
A: T/C (dose: 12.5 mg/kg/injection, schedule: Q01DX009 (ip), vehicle: distilled water + Tween-80): 116 % of control; T/C (dose: 25.0 mg/kg/injection, schedule: Q01DX009 (ip), vehicle: distilled water + Tween-80): 153 % of control; T/C (dose: 30.0 mg/kg/injection, schedule: Q01DX009 (ip), vehicle: water): 163 % of control; T/C (dose: 50.0 mg/kg/injection, schedule: Q01DX009 (ip), vehicle: distilled water + Tween-80): 193 % of control; T/C (dose: 100.0 mg/kg/injection, schedule: Q01DX001 (ip), vehicle: saline with Tween-80): 96 % of control; T/C (dose: 200.0 mg/kg/injection, schedule: Q01DX001 (ip), vehicle: saline with Tween-80): 109 % of control; T/C (dose: 400.0 mg/kg/injection, schedule: Q01DX001 (ip), vehicle: saline with Tween-80): 119 % of control

Q: What does the source list for `C/C(=N/N=C(N)N)c1cnn(C(=N)N)c1C`?
A: T/C [6]: 99 % of control; T/C (dose: 120.0 mg/kg/injection, schedule: Q01DX005 (ip), vehicle: Klucel (hydroxypropylcellulose) (HPC)): 114 % of control

Q: For `O=C(Nc1ccccc1)c1ccccc1C(O)(c1ccccc1)c1ccc(Cl)cc1` (stereo unspecified), which T/C [13] is on record?
A: 95 % of control

Q: What about the T/C [14] of the same compound?
A: 90 % of control

Q: And the T/C (dose: 400.0 mg/kg/injection, schedule: Q01DX009 (ip), vehicle: saline with Tween-80)?
A: 90 % of control

Q: How did the T/C (dose: 100.0 mg/kg/injection, schedule: Q04DX003 (ip), vehicle: Klucel (hydroxypropylcellulose) (HPC)) turn out when `CC(=O)Nc1cccc(N=Cc2ccc[nH]2)c1` was run?
A: 99 % of control

Q: What about the T/C (dose: 200.0 mg/kg/injection, schedule: Q04DX003 (ip), vehicle: Klucel (hydroxypropylcellulose) (HPC)) of the same compound?
A: 100 % of control

Q: What does the source list for `CCCCS(=O)(=O)N/N=C/C(=O)O`?
A: T/C (dose: 6.25 mg/kg/injection, schedule: Q01DX009 (ip), vehicle: water): 119 % of control; T/C (dose: 12.5 mg/kg/injection, schedule: Q01DX009 (ip), vehicle: water): 124 % of control; T/C (dose: 50.0 mg/kg/injection, schedule: Q01DX009 (ip), vehicle: water): 162 % of control; T/C (dose: 100.0 mg/kg/injection, schedule: Q01DX009 (ip), vehicle: water): 173 % of control

Q: Which results are given for `CCCSCN(CC)CC`?
A: T/C [4]: 95 % of control; T/C [5]: 90 % of control; T/C (dose: 200.0 mg/kg/injection, schedule: Q01DX009 (ip), vehicle: saline): 114 % of control

Q: Which T/C [1] does the source give for `O=C(CC1=NC2NN(c3ccccc3)C(=O)C2=C1CC(=O)c1ccc([N+](=O)[O-])cc1)c1ccc([N+](=O)[O-])cc1` (stereo unspecified) here?
A: 99 % of control

Q: What about the T/C [2] of the same compound?
A: 105 % of control

Q: And the T/C [3]?
A: 104 % of control
